Laboratory results as given in patent US20020061927A1, “Insulin receptor activators for the treatment of metabolic disorders induced by treatment with HIV protease inhibitors” (priority 2000, published 2002).

Legend:
[1] = tested on: 3T3 L1 adipocytes; assay: Reversal of HIV protease inhibitor block of glucose transport in cells (14C-2-deoxy-D-glucose uptake); format: cell-based; details: for effect of HIV protease inhibitor drug on glucose transport activity: 3T3 L1 adipocytes; for glucose transport: 3T3 L1 cells; for effect on glucose transport activity inhibited by HIV protease inhibitor drugs: 3T3 L1 adipocytes in presence of Ritonavir, Indinavir or Amprenavir
Experimental: Stimulation of the insulin receptor leads to the transport of glucose from the blood into cells, thus modulating blood glucose levels. 3T3 L1 fibroblasts (ATCC) were grown in Dulbecco's modified Eagle's medium (DMEM) with 10% fetal bovine serum (FBS). The cells were plated at a density of 3×10^4 cells/ml in 96 well plates (0.1 ml/well). Two days after confluence was reached, the cells were treated for 3 days with 0.5 mM isobutylmethylxanthine (IBMX), 1 μM dexamethasone, and 1.7 μM insulin. The cells were then transferred to DMEM with 10% FBS and supplemented with 1.7 μM insulin for 2 more days. The cells were maintained in DMEM with 10% FBS for an additional 4 days. Finally, the cells were serum starved overnight in 0.1% bovine serum albumin (BSA) in DMEM.
The following day, the cells were pretreated with Indinavir, Ritonavir, or Amprenavir (at the concentrations indicated in the Tables below) in a buffer containing 150 mM NaCl, 1.7 mM KCl, 0.9 mM CaCl2 1.47 mM K2HPO4 (pH 7.4) and 0.01% BSA for 6 minutes followed by treatment with a compound described in this patent (56 μM compound 1; 20 μM compound 2) with or without 100 nM insulin for 30 minutes. Following incubation, the cells were labeled with ^14C-labeled 2-deoxy-D-glucose (0.5 μCi/ml) and incubation was continued for additional 30 minutes at 37° C. The cells were then washed 3 times with ice-cold PBS/20 mM glucose and lysed in 100 μl of lysis buffer (50 mM Hepes pH 7.6, 1% Triton X-100) for 30 minutes at room temperature. Radioactivity in the lysate was quantified by scintillation counting.
Once ^14C-2-deoxy-D-glucose is transported into the cells, it is not released. Glucose transport is, therefore, proportional to the amount of radioactivity in the lysate.

[2] = tested on: male CD rats; assay: Reversal of protease inhibitor-mediated insulin resistance in normal rats (oral glucose challenge); format: in vivo, rat; details: indinavir sulfate plus compound 1, oral
Experimental: Seven to nine week-old male CD rats (Charles River Laboratories, Hollister, Calif.) were used to study the effects of protease inhibitor and compound 1. Animals were kept in a 12 h/12 h light/dark cycle and were fasted overnight.
Indinavir sulfate was prepared in water, and compound 1 was prepared in PBS. Seven animals (average weight 300 grams) were used in each treatment condition. The animals were treated with vehicle or indinavir sulfate or indinavir sulfate plus compound 1 by oral administration. After 30 min, the animals were challenged with oral glucose load (2 g/kg), and blood glucose measurements were taken at 0 min, 10 min, 20 min, 30 min, 60 min, 90 min and 120 min by tail bleeding. Glucose measurements were made with a Glucometer and Glucose strips (Bayer).
The blood glucose levels are reported as the percentage of the values before challenge (“zero time” values).
Blood samples obtained from 0 min and 30 min time points were analysed for plasma insulin levels by ELISA (ALPCO Diagnostics, Windham, N.H.).

[3] = 5 μM Amprenavir pretreatment, 56 μM compound 1 / 20 μM compound 2
[4] = 5 μM Indinavir pretreatment, 56 μM compound 1 / 20 μM compound 2
[5] = 10 μM Amprenavir pretreatment, 56 μM compound 1 / 20 μM compound 2
[6] = 10 μM Indinavir pretreatment, 56 μM compound 1 / 20 μM compound 2
[7] = 20 μM Indinavir pretreatment, 56 μM compound 1 / 20 μM compound 2

SMILES	effect of HIV protease inhibitor drug on glucose transport activity [1]	glucose transport [1, 3]	glucose transport [1, 4]	glucose transport [1, 5]	glucose transport [1, 6]	glucose transport [1, 7]	effect on glucose transport activity inhibited by HIV protease inhibitor drugs [1]	glucose transport ([1]; 5 μM Ritonavir pretreatment, 56 μM compound 1)	glucose transport ([1]; 20 μM Amprenavir pretreatment, 56 μM compound 1)	protease inhibitor-mediated insulin resistance [2]
CC(C)c1nc(CN(C)C(=O)N[C@H](C(=O)N[C@@H](Cc2ccccc2)C[C@H](O)[C@H](Cc2ccccc2)NC(=O)OCc2cncs2)C(C)C)cs1 [Ritonavir, reference compound]	inhibited									
CC(C)CN(C[C@@H](O)[C@H](Cc1ccccc1)NC(=O)O[C@H]1CCOC1)S(=O)(=O)c1ccc(N)cc1 [Amprenavir, reference compound]	inhibited									
O=C(Nc1ccc2c(O)c(/N=N/c3ccc(/N=N/c4ccc(S(=O)(=O)O)cc4)cc3S(=O)(=O)O)c(S(=O)(=O)O)cc2c1)Nc1ccc2c(O)cc(S(=O)(=O)O)c(N=Nc3ccc(/N=N/c4ccc(S(=O)(=O)O)cc4)cc3S(=O)(=O)O)c2c1 [Compound 2]		1.25 foldover fold over 50 nM insulin	1.38 fold over fold over 50 nM insulin	1.07 foldover fold over 50 nM insulin	1.25 fold over fold over 50 nM insulin	1.02 fold over fold over 50 nM insulin	increase the glucose transport activity			
O=C(Nc1ccc2c(O)cc(S(=O)(=O)Nc3ccc(Cl)c(S(=O)(=O)O)c3)cc2c1)Nc1ccc2c(O)cc(S(=O)(=O)Nc3ccc(Cl)c(S(=O)(=O)O)c3)cc2c1 [Compound 1]		1.83 fold over fold over 50 nM insulin	1.34 fold over fold over 50 nM insulin	1.53 fold over fold over 50 nM insulin	1.16 fold over fold over 50 nM insulin	1.12 fold over fold over 50 nM insulin	increase the glucose transport activity	1.32 foldover fold over 50 nM insulin	1.21 fold over fold over 50 nM insulin	Reversal of Protease Inhibitor-mediated Insulin Resistance
CC(C)(C)NC(=O)[C@@H]1CN(Cc2cccnc2)CCN1C[C@@H](O)C[C@@H](Cc1ccccc1)C(=O)N[C@H]1c2ccccc2C[C@H]1O [Indinavir, reference compound]	inhibited									
